Patent EP4745137A1 (Gluetacs Therapeutics (Shanghai) Co., Ltd., priority 2023, dated 2025)
Read-outs that look alike come from different tables or passages of the source.

Key:
WEE1 = target: T1, WEE1 (Homo sapiens, UniProt P30291+Q96SW2); assay: Western-blot assay of substrate protein degradation in hPBMCs, WEE1; assay type: cell-based; settings: 24 hours of compound treatment, compounds tested at 50 nM and 500 nM (concentration of the table not stated)
T1 construct: endogenous in cells; host or cells: hPBMCs (Milecell Biotechnologies)
T1 sequence (P30291 whole entry): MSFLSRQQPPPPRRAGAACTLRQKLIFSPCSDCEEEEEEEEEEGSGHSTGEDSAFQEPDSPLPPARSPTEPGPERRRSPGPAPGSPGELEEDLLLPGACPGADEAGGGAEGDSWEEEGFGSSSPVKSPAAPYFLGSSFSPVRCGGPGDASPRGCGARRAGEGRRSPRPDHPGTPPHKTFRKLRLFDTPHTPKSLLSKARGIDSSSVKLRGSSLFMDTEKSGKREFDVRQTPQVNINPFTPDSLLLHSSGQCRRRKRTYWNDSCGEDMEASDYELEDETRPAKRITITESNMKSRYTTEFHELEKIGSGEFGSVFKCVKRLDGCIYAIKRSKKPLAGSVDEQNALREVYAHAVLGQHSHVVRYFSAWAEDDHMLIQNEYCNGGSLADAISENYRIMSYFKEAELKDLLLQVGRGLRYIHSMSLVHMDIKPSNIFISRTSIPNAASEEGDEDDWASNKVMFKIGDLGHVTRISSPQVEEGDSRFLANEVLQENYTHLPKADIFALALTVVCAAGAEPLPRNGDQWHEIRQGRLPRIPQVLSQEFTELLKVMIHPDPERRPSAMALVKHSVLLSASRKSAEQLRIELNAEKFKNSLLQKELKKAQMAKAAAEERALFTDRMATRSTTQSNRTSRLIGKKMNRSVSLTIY
T1 sequence (Q96SW2 whole entry): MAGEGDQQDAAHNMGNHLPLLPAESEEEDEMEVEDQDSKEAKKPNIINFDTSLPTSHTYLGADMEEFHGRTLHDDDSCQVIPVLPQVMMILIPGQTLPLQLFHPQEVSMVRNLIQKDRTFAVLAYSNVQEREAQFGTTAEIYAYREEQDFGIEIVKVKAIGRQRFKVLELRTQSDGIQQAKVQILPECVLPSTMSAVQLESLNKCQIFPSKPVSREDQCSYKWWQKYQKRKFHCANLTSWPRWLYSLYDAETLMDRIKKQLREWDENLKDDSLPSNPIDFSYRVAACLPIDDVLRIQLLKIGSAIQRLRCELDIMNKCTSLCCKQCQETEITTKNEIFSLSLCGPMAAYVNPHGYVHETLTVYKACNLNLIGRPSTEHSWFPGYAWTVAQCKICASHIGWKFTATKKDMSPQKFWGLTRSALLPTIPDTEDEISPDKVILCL
T1 sequence (Q16531 whole entry partner): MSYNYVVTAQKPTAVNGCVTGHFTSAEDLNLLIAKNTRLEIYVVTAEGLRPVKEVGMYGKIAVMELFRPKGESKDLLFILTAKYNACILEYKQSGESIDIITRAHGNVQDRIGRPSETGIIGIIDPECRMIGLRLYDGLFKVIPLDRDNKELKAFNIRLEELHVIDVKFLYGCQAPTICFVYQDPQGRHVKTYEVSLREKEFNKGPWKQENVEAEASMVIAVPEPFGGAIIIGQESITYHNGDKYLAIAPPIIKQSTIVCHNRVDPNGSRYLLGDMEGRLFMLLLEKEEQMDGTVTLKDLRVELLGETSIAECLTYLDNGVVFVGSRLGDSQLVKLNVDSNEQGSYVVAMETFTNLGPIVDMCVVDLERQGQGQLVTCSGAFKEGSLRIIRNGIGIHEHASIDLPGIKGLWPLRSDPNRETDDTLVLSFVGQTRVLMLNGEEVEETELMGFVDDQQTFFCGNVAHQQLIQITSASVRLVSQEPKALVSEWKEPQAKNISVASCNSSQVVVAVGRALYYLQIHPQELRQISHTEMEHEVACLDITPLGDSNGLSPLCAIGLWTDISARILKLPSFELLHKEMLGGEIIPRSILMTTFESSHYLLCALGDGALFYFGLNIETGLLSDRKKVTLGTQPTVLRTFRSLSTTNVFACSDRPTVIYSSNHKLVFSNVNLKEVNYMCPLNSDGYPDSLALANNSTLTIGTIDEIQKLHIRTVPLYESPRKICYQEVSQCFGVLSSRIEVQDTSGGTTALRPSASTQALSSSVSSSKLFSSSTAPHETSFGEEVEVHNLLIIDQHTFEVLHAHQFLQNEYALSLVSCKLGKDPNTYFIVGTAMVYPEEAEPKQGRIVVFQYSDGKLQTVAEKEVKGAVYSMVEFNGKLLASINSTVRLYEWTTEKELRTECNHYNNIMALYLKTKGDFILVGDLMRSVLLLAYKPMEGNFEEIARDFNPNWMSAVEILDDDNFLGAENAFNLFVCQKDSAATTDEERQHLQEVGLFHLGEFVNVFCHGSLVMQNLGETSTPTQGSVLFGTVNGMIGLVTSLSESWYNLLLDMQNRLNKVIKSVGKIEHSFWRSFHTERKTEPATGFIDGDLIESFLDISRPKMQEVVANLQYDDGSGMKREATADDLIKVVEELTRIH

IKZF1 = target: T2, IKZF1 (Homo sapiens, UniProt Q13422+Q96SW2); assay: Western-blot assay of substrate protein degradation in hPBMCs, IKZF1; assay type: cell-based; settings: 24 hours of compound treatment, compounds tested at 50 nM and 500 nM (concentration of the table not stated)
T2 construct: endogenous in cells; host or cells: hPBMCs (Milecell Biotechnologies)
T2 sequence (Q13422 whole entry): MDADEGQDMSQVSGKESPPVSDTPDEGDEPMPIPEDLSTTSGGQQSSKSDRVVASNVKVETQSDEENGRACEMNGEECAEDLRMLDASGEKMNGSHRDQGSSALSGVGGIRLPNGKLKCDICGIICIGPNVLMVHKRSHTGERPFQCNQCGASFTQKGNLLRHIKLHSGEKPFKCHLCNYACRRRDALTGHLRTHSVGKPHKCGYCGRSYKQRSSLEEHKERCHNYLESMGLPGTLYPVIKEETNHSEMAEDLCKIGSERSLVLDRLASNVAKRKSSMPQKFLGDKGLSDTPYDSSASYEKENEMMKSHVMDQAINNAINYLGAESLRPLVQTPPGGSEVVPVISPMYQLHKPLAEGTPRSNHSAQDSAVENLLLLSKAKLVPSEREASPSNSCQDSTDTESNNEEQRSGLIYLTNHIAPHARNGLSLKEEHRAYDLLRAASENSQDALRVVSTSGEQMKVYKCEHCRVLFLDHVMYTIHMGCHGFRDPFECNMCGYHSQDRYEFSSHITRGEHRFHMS
T2 sequence (Q96SW2 whole entry): as the sequence (Q96SW2 whole entry) above
T2 sequence (Q16531 whole entry partner): as the sequence (Q16531 whole entry partner) above

IKZF2 = target: T3, IKZF2 (Homo sapiens, UniProt Q96SW2+Q9UKS7); assay: Western-blot assay of substrate protein degradation in hPBMCs, IKZF2; assay type: cell-based; settings: 24 hours of compound treatment, compounds tested at 50 nM and 500 nM (concentration of the table not stated)
T3 construct: endogenous in cells; host or cells: hPBMCs (Milecell Biotechnologies)

IKZF3 = target: T4, IKZF3 (Homo sapiens, UniProt Q96SW2+Q9UKT9); assay: Western-blot assay of substrate protein degradation in hPBMCs, IKZF3; assay type: cell-based; settings: 24 hours of compound treatment, compounds tested at 50 nM and 500 nM (concentration of the table not stated)
T4 construct: endogenous in cells; host or cells: hPBMCs (Milecell Biotechnologies)
T4 sequence (Q9UKT9 whole entry): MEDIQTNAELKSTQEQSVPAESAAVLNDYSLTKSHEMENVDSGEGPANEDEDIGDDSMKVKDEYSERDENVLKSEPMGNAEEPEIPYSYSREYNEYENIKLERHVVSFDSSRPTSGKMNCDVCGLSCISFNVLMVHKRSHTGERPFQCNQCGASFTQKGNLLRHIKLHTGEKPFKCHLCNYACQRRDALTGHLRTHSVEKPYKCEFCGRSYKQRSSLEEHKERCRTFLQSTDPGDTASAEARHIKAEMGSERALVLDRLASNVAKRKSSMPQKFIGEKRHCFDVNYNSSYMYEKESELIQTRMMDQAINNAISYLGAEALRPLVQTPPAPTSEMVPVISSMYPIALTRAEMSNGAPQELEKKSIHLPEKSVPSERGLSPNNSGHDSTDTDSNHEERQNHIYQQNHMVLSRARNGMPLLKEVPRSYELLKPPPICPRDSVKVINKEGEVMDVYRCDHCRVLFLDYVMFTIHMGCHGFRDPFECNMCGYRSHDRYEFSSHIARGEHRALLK
T4 sequence (Q96SW2 whole entry): as the sequence (Q96SW2 whole entry) above
T4 sequence (Q16531 whole entry partner): as the sequence (Q16531 whole entry partner) above

CK1α = target: T5, CK1α (Homo sapiens, UniProt P48729+Q96SW2); assay: Western-blot assay of substrate protein degradation in hPBMCs, CK1α; assay type: cell-based; settings: 24 hours of compound treatment, compounds tested at 50 nM and 500 nM (concentration of the table not stated)
T5 construct: endogenous in cells; host or cells: hPBMCs (Milecell Biotechnologies)
T5 sequence (P48729 whole entry): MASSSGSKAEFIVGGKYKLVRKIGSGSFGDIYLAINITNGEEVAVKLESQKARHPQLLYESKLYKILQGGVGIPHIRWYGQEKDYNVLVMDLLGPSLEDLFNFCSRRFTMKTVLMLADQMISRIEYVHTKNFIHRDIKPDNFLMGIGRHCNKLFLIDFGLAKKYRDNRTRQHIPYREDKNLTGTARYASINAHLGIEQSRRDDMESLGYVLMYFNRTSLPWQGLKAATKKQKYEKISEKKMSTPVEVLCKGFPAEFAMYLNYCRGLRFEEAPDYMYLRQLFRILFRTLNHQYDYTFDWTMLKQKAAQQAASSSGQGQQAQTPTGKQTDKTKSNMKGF
T5 sequence (Q96SW2 whole entry): as the sequence (Q96SW2 whole entry) above
T5 sequence (Q16531 whole entry partner): as the sequence (Q16531 whole entry partner) above

GSPT1 = target: T6, GSPT1 (Homo sapiens, UniProt P15170+Q96SW2); assay: Western-blot assay of substrate protein degradation in hPBMCs, GSPT1; assay type: cell-based; settings: 24 hours of compound treatment, compounds tested at 50 nM and 500 nM (concentration of the table not stated)
T6 construct: endogenous in cells; host or cells: hPBMCs (Milecell Biotechnologies)
T6 sequence (P15170 whole entry): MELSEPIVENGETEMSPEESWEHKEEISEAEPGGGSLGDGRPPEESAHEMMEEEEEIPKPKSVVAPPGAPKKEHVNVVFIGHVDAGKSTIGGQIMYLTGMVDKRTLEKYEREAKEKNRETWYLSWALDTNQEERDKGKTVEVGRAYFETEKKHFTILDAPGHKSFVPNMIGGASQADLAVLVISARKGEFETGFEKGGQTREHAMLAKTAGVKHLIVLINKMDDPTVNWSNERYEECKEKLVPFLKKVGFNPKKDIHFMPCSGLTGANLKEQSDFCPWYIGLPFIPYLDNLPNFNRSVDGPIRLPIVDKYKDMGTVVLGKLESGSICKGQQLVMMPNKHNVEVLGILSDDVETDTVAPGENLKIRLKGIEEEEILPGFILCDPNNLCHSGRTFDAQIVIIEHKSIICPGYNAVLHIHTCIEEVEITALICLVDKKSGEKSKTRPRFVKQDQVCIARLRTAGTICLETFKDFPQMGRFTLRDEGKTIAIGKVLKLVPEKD
T6 sequence (Q96SW2 whole entry): as the sequence (Q96SW2 whole entry) above
T6 sequence (Q16531 whole entry partner): as the sequence (Q16531 whole entry partner) above

[1] = target: T7, human Cereblon WT GST-tagged protein (Homo sapiens, UniProt Q96SW2); assay: CRBN-binding affinity by HTRF (CEREBLON BINDING kit)
T7 construct: purchased CISBIO 64BDCRBNPEH
T7 sequence (Q96SW2 whole entry): as the sequence (Q96SW2 whole entry) above
Method: The CEREBLON BINDING kits (specification: 10,000 tests; product number: Catalog # 64BDCRBNPEH; CISBIO company) was used to determine the CRBN binding ability of the compounds to be tested through a HTRF method (homogeneous time-resolved fluorescence). The specific methods are as follows: • 1. […] Specifically, diluent #9 (1X) solution was used as the diluent, and multiple concentration gradients were set. […] Then, 2.5 µL of human Cereblon WT GST-tagged protein solution was added to each well. Finally, 5 µL of the thoroughly mixed Thalidomide-Re reagent and GST Eu antibody working solution were added to each of the aforementioned wells. […] The blank control wells were sequentially added with 2.5 µL of diluent #9 (1X) solution, 2.5 µL of binding buffer, and 5 µL of thoroughly mixed Thalidomide-Re reagent and GST Eu antibody working solution. • 4.

[2] = HTRF inhibitory activity, CEREBLON BINDING kit; read-out: HTRF IC50

IC50 [1, 2] [nM]	SMILES	Weel substrate protein remaining % (WEE1)	IKZF 1 substrate protein remaining % (IKZF1)	IKZF2 substrate protein remaining % (IKZF2)	IKZF3 substrate protein remaining % (IKZF3)	CK1a substrate protein remaining % (CK1α)	GSPT1 substrate protein remaining % (GSPT1)	IC50 ([1]; read-out: HTRF IC50; HTRF inhibitory activity, CEREBLON BINDING kit) [nM]
500 to 1000	O=C1CCC(N2Cc3cc(CN4CCc5sccc5C4)ccc3C2=O)C(=O)N1 (stereo not shown) [GT-04200, 3-(5-((6,7-dihydrothieno[3,2-c]pyridin-5(4H)-yl)methyl)-1-oxoisoindolin-2-yl)piperidine-2,6-dione]	A (0% ≤ substrate protein remaining % ≤ 80%)	B (80%< substrate protein remaining %≤ 100%)	A (0% ≤ substrate protein remaining % ≤ 80%)	A (0% ≤ substrate protein remaining % ≤ 80%)	B (80%< substrate protein remaining %≤ 100%)	B (80%< substrate protein remaining %≤ 100%)	
500 to 1000	O=C1CCC(N2Cc3cc(CN4CCN(c5ncccc5C(F)(F)F)CC4)ccc3C2=O)C(=O)N1 (stereo not shown) [GT-04434, 3-(1-oxo-5-((4-(3-(trifluoromethyl)pyridin-2-yl)piperazin-1-yl)methyl)isoindolin-2-yl)piperidine-2,6-dione]	B (80%< substrate protein remaining %≤ 100%)	B (80%< substrate protein remaining %≤ 100%)	B (80%< substrate protein remaining %≤ 100%)	B (80%< substrate protein remaining %≤ 100%)	B (80%< substrate protein remaining %≤ 100%)	A (0% ≤ substrate protein remaining % ≤ 80%)	
< 500	O=C1CCC(N2Cc3cc(CN4CCN(c5ccnc(Cl)c5)CC4)ccc3C2=O)C(=O)N1 (stereo not shown) [GT-04435, 3-(5-((4-(2-chloropyridin-4-yl)piperazin-1-yl)methyl)-1-oxoisoindolin-2-yl)piperidine-2,6-dione]							
1000 to 1500	Cc1ccc(N2CCN(Cc3ccc4c(c3)CN(C3CCC(=O)NC3=O)C4=O)CC2)c(C)c1 (stereo not shown) [GT-04439, 3-(5-((4-(2,4-dimethylphenyl)piperazin-1-yl)methyl)-1-oxoisoindolin-2-yl)piperidine-2,6-dione]	A (0% ≤ substrate protein remaining % ≤ 80%)	A (0% ≤ substrate protein remaining % ≤ 80%)	A (0% ≤ substrate protein remaining % ≤ 80%)	A (0% ≤ substrate protein remaining % ≤ 80%)	A (0% ≤ substrate protein remaining % ≤ 80%)	A (0% ≤ substrate protein remaining % ≤ 80%)	
500 to 1000	O=C1CCC(N2Cc3cc(CN4CCN(c5nc(Cl)nc6c5SCC6)CC4)ccc3C2=O)C(=O)N1 (stereo not shown) [GT-04683, 3-(5-((4-(2-chloro-6,7-dihydrothieno[3,2-d]pyrimidin-4-yl)piperazin-1-yl)methyl)-1-oxoisoindolin-2-yl)piperidine-2,6-dione]							
< 500	O=C1CCC(N2Cc3cc(CN4CCN(c5nc6c(c(N7CCNCC7)n5)SCC6)CC4)ccc3C2=O)C(=O)N1 (stereo not shown) [GT-04720, 3-(1-oxo-5-((4-(4-(piperazin-1-yl)-6,7-dihydrothieno[3,2-d]pyrimidin-2-yl)piperazin-1-yl)methyl)isoindolin-2-yl)piperidine-2,6-dione]							
1500 to 1900	O=C1CCC(N2Cc3ccc(CN4CCC(c5noc6cc(F)ccc56)CC4)cc3C2=O)C(=O)N1 (stereo not shown) [GT-04768, 3-(6-((4-(6-fluorobenzo[d]isoxazol-3-yl)piperidin-1-yl)methyl)-1-oxoisoindolin-2-yl)piperidine-2,6-dione]							
500 to 1000	O=C1CCC(N2Cc3cc(CN4CCN(c5c(Cl)ccnc5Cl)CC4)ccc3C2=O)C(=O)N1 (stereo not shown) [GT-04896, 3-(5-((4-(2,4-dichloropyridin-3-yl)piperazin-1-yl)methyl)-1-oxoisoindolin-2-yl)piperidine-2,6-dione]							
< 500	Cc1nc(N2CCN(Cc3ccc4c(c3)CN(C3CCC(=O)NC3=O)C4=O)CC2)c2c(-c3ccccc3)csc2n1 (stereo not shown) [GT-05100, 3-(5-((4-(2-methyl-5-phenylthieno[2,3-d]pyrimidin-4-yl)piperazin-1-yl)methyl)-1-oxoisoindolin-2-yl)piperidine-2,6-dione]							
1000 to 1500	Cc1nc(N2CCN(Cc3ccc4c(c3)C(=O)N(C3CCC(=O)NC3=O)C4=O)CC2)c2c(-c3ccccc3)csc2n1 (stereo not shown) [GT-06346, 2-(2,6-dioxopiperidin-3-yl)-5-((4-(2-methyl-5-phenylthieno[2,3-d]pyrimidin-4-yl)piperazin-1-yl)methyl)isoindoline-1,3-dione]							
1500 to 1900	O=C1CCC(N2C(=O)c3ccc(CN4CCN(c5ccc(Cl)nn5)CC4)cc3C2=O)C(=O)N1 (stereo not shown) [GT-06605, 5-((4-(6-chloropyridazin-3-yl)piperazin-1-yl)methyl)-2-(2,6-dioxopiperidin-3-yl)isoindoline-1,3-dione]							

Continued, molecule first:

SMILES	IC50 [1, 2] [nM]	Weel substrate protein remaining % (WEE1)	IKZF 1 substrate protein remaining % (IKZF1)	IKZF2 substrate protein remaining % (IKZF2)	IKZF3 substrate protein remaining % (IKZF3)	CK1a substrate protein remaining % (CK1α)	GSPT1 substrate protein remaining % (GSPT1)	IC50 ([1]; read-out: HTRF IC50; HTRF inhibitory activity, CEREBLON BINDING kit) [nM]
O=C1CCC(N2Cc3cc(CN4CCN(c5ncccc5Cl)CC4)ccc3C2=O)C(=O)N1 (stereo not shown) [GT-04428, 3-(5-((4-(3-chloropyridin-2-yl)piperazin-1-yl)methyl)-1-oxoisoindolin-2-yl)piperidine-2,6-dione]	< 500	B (80%< substrate protein remaining %≤ 100%)	B (80%< substrate protein remaining %≤ 100%)	B (80%< substrate protein remaining %≤ 100%)	B (80%< substrate protein remaining %≤ 100%)	B (80%< substrate protein remaining %≤ 100%)	A (0% ≤ substrate protein remaining % ≤ 80%)	
O=C1CCC(N2Cc3cc(CN4CCN(c5ccc(C(F)(F)F)cn5)CC4)ccc3C2=O)C(=O)N1 (stereo not shown) [GT-04433, 3-(1-oxo-5-((4-(5-(trifluoromethyl)pyridin-2-yl)piperazin-1-yl)methyl)isoindolin-2-yl)piperidine-2,6-dione]	1000 to 1500	B (80%< substrate protein remaining %≤ 100%)	B (80%< substrate protein remaining %≤ 100%)	B (80%< substrate protein remaining %≤ 100%)	B (80%< substrate protein remaining %≤ 100%)	B (80%< substrate protein remaining %≤ 100%)	A (0% ≤ substrate protein remaining % ≤ 80%)	
O=C1CCC(N2Cc3cc(CN4CCN(c5c(Cl)cncc5Cl)CC4)ccc3C2=O)C(=O)N1 (stereo not shown) [GT-04436, 3-(5-((4-(3,5-dichloropyridin-4-yl)piperazin-1-yl)methyl)-1-oxoisoindolin-2-yl)piperidine-2,6-dione]	< 500							
O=C1CCC(N2Cc3cc(CN4CCN(c5ccccn5)CC4)ccc3C2=O)C(=O)N1 (stereo not shown) [GT-04449, 3-(1-oxo-5-((4-(pyridin-2-yl)piperazin-1-yl)methyl)isoindolin-2-yl)piperidine-2,6-dione]	500 to 1000	A (0% ≤ substrate protein remaining % ≤ 80%)	A (0% ≤ substrate protein remaining % ≤ 80%)	A (0% ≤ substrate protein remaining % ≤ 80%)	A (0% ≤ substrate protein remaining % ≤ 80%)	A (0% ≤ substrate protein remaining % ≤ 80%)	A (0% ≤ substrate protein remaining % ≤ 80%)	
O=C1CCC(N2Cc3cc(CN4CCC(c5noc6cc(F)ccc56)CC4)cc(F)c3C2=O)C(=O)N1 (stereo not shown) [GT-04767, 3-(7-fluoro-5-((4-(6-fluorobenzo[d]isoxazol-3-yl)piperidin-1-yl)methyl)-1-oxoisoindolin-2-yl)piperidine-2,6-dione]	500 to 1000							
O=C1CCC(N2C(=O)c3ccc(CN4CCN(c5ncnc6scc(-c7ccccc7)c56)CC4)cc3C2=O)C(=O)N1 (stereo not shown) [GT-06345, 2-(2,6-dioxopiperidin-3-yl)-5-((4-(5-phenylthieno[2,3-d]pyrimidin-4-yl)piperazin-1-yl)methyl)isoindoline-1,3-dione]	1000 to 1500							
O=C1CCC(N2C(=O)c3ccc(CN4CCC(c5ncnc6scc(-c7ccccc7)c56)CC4)cc3C2=O)C(=O)N1 (stereo not shown) [GT-06595, 2-(2,6-dioxopiperidin-3-yl)-5-((4-(5-phenylthieno[2,3-d]pyrimidin-4-yl)piperidin-1-yl)methyl)isoindoline-1,3-dione]	1000 to 1500							
O=C1CCC(N2C(=O)c3ccc(CN4CCN(c5nc6c(c(N7CCOCC7)n5)SCC6)CC4)cc3C2=O)C(=O)N1 (stereo not shown) [GT-06713, 2-(2,6-dioxopiperidin-3-yl)-5-((4-(4-morpholino-6,7-dihydrothieno[3,2-d]pyrimidin-2-yl)piperazin-1-yl)methyl)isoindoline-1,3-dione]								1500 to 1900
